Data on 8 compounds can be found in patent US20090042978A1, “Pharmaceutical Compositions Containing Nitrovinylfuran Derivatives for the Treatment of Leishmaniosis and Trypanosomosis” (CENTRO DE BIOACTIVOS QUIMICOS, priority 2005, published 2009).

In brackets after ≈: the same amount, converted by molar mass. Several values for one entry are separate records, joined by “and”; a condition that tells them apart may be missing. Equal entries are not always repeated. Where two headings read alike, the source gives them in different places.

For series [1], the system named is L. mexicana amazonensis promastigotes. Briefly: In vitro activity against Leishmania promastigotes (amazonensis). Set-up: CP100: unit not given here. The format is cell-based. As to conditions: for IC50: Leishmania mexicana, mean inhibitory concentration, read-out: CI50 (the source's name); for CP100: minimal parasiticidal concentration abolishing motility of all parasites. The method, then:
(§1) Mean inhibitory concentrations (Cl50%) against L. mexicana amazonensis, L. donovani infantum and L. braziliensis braziliensis promastigotes were determined according to the method described by Bodley A L et al (J Infect Dis 1995; 172(4):1157-9.). Minimal parasiticidal concentrations (CP100, minimal concentrations capable of abolishing the motility of all parasites in the culture) were also determined. Amphotericin B and Glucantime® were tested as reference drugs.

Series [2] has as its system L. braziliensis braziliensis promastigotes. Nature of the series: In vitro activity against Leishmania promastigotes (braziliensis). The format is cell-based. Further details: CP100: unit not given here. As to conditions: for IC50: Leishmania braziliensis, mean inhibitory concentration, read-out: CI50 (the source's name); for CP100: minimal parasiticidal concentration. The procedure:
as §1

Series [3] is described as follows: Toxicological studies (LD50, LD0, MTD), intraperitoneal. The format is in vivo, female Balb/c mice. As to conditions: for LD0: maximal non-lethal dose calculated from dose-mortality curves, single i.p. injection; for LD50: single intraperitoneal injection, female Balb/c mice; for MTD at 14 days: female, Balb/c, repeated intraperitoneal administration every 24 h during 14 days, read-out: MTD (every 24 h). The method, then: The same animal model used for in vivo anti-leishmanial tests was used to perform comparative toxicological studies of the β-nitrovinylfuran derivatives. The main excipient of the compositions used with this purpose was the sunflower oil. The mean lethal doses (LD50) of each β-nitrovinylfuran derivative and Amphotericin B were estimated in female Balb/c mice (18-20g body weight), treated by a single intraperitoneal injection. The maximal non-lethal doses (LD0) were calculated from the dose-mortality curves. The maximal tolerated doses (MTD, maximal dose causing neither mortality nor body weight losses over 10% respect to the initial weight) by repeated intraperitoneal administration every 12 or 24 h during 14 days were determined as well.

The subject of series [4] is L. donovani infantum promastigotes. Briefly: In vitro activity against Leishmania promastigotes (infantum). The format is cell-based. Set-up: CP100: unit not given here. As to conditions: for IC50: Leishmania donovani, mean inhibitory concentration, read-out: CI50 (the source's name); for CP100: minimal parasiticidal concentration. The method, then: as §1
The test system of series [5] is trypomastigotes of T. cruzi. Briefly: In vitro activity against Trypanosoma cruzi. As to conditions: for IC50: Trypanosoma cruzi, T. cruzi trypomastigotes grown in rat myoblast cell line, read-out: CI50 (the source's name); for CP100: minimal concentration that immobilizes all parasites. It is filed as cell-based. The method, then: The in vitro activity of the β-nitrovinylfuran derivatives was tested against trypomastigotes of T. cruzi grown in a rat myoblast cell line. Minimal parasiticidal concentrations (minimal concentration that immobilizes all the parasites in the culture) and mean inhibitory concentrations (concentration that reduces the number of parasites to 50% of those found in the un-treated control cultures) were determined according to Buckner's method (Antimicrob Agents Chemother 1996; 40(11):2592-7).

The test system of series [6] is L. m. amazonensis. Briefly: Experimental cutaneous leishmaniosis, chronic lesions treated every 12 h. It is filed as in vivo, Balb/c mice. The settings on record: for effectiveness on chronic lesions: first week, F 50 mg/Kg twice a day, Amphotericin B 5 mg/Kg every other day. The procedure:
Mice developed chronic leishmanial lesions at eighteen weeks post-infection. Lesions were ulcerated and covered with a thick crust. The average dorso-plantar diameter of the infected foot was 1.23±0.24 cm and the lateral diameter was 1.24±0.19 cm. At that stage the treatment started twice a day with either 2-bromo-5-(2-bromo-2-nitrovinyl)-furan at 2 mg/Kg; 2-bromo-5-(2-methyl-2-nitrovinyl)-furan at 50 mg/Kg or Amphotericin B at 5 mg/Kg every other day. A control group formed by infected non-treated mice was also included in the experiment. All drugs were administered by intraperitoneal route for 14 days. […] Amphotericin B was not effective, since neither the dorso-plantar nor the lateral diameters differed statistically from the lesions of the control group (P>0.05).

The test system of series [7] is L. m. amazonensis. Briefly: Experimental cutaneous leishmaniosis, early stage lesions treated every 24 h. It is filed as in vivo, Balb/c mice. The method, then: (§2) Balb/c mice were experimentally infected with L. m. amazonensis promastigotes by intradermal injection in the footpads and six weeks later they were treated with the test compounds by intraperitoneal route. The product 2-bromo-5-(2-bromo-2-nitrovinyl)-furan was administered at a dose of 5 mg/Kg; the 2-bromo-5-(2-methyl-2-nitrovinyl)-furan, at 50 mg/Kg and Amphotericin B, at 1 mg/Kg. Animals were daily dosed for 14 days. Miglyol 810, the vehicle used for the β-nitrovinylfuran derivatives, was similarly administered to a group of mice.

In series [8] the test system is L. m. amazonensis. Nature of the series: Experimental cutaneous leishmaniosis, early stage lesions treated every 12 h. The format is in vivo, Balb/c mice. As to conditions: i.p. every 12 h. The method, then: as §2
The experiment was essentially carried out in a similar way as the one described above. However, 2-bromo-5-(2-bromo-2-nitrovinyl,-furan was administered at a dose of 2 mg/Kg and 2-bromo-5-(2-methyl-2-nitrovinyl)-furan at 100 mg/Kg. Treatments were administered by intraperitoneal route, but every 12 h instead of 24 h.

In series [9] the test system is Leishmania promastigotes. Nature of the series: In vitro activity against Leishmania promastigotes (three species). The format is cell-based. The method, then: as §1
[10] abbreviates: mouse, in vivo, ip, read-out: LD50.

In the case of `O=[N+]([O-])C(Br)=Cc1ccco1` [Compound C, 2-(2-bromo-2-nitrovinyl)-furan], the IC50 in series [1] was 0.63 µg/mL (≈ 2.89 µM); in series [2], 0.25 µg/mL (≈ 1.15 µM); in series [4], 0.36 µg/mL (≈ 1.65 µM); in series [5], 3.7 µg/mL and 16.9 µM. Further, the CP100 is 1.77 in [1]; 1.25 in series [2]; 2.01 in [4]; 10.0 μg/mL and 45.9 μM in series [5]. Also, the LD0 in series [3] is 35 mg/kg. Besides, the LD50 in series [3] (setting [10]) amounted to 51 mg/kg.
Consider `CC(=Cc1ccco1)[N+](=O)[O-]` [E, 2-(2-methyl-2-nitrovinyl)-furan], for which the IC50 is 0.34 µg/mL (≈ 2.22 µM) in series [1]; 0.35 µg/mL (≈ 2.29 µM) in [2]; 0.31 µg/mL (≈ 2.02 µM) in [4]; 4.7 µg/mL and 31 µM in series [5]. The CP100 is 3.49 in series [1]; 4.84 in series [2]; 1.27 in series [4]; 30.0 μg/mL and 196.1 μM in series [5]. Moreover, the MTD at 14 days in series [3] (mouse, in vivo, ip) was 60 mg/kg. Also, in series [3], the LD0 is 65 mg/kg. In addition, the LD50 in series [3] (setting [10]) is 80 mg/kg.
On to `O=C(Cn1ccnc1[N+](=O)[O-])NCc1ccccc1` [Benznidazole, reference compound], for which, in [5], the IC50 was 0.9 µg/mL and 3.3 µM; the CP100 was >40 μg/mL and >154 μM.
As to `O=[N+]([O-])C=Cc1ccco1` [A, 2-(2-nitrovinyl)-furan], the IC50 in [1] is 0.66 µg/mL (≈ 4.74 µM); in series [2] it was 0.2 µg/mL (≈ 1.44 µM); in [4] it was 0.35 µg/mL (≈ 2.52 µM); in series [5], 1.8 µg/mL and 12.6 µM. The CP100 in series [1] was 1.12; in series [2], 1.29; in series [4] it was 1.75; in [5], 10.0 μg/mL and 71.9 μM. Also, the MTD at 14 days in series [3] (mouse, in vivo, ip) is 55 mg/kg. Also, in series [3], the LD0 is 50 mg/kg. In addition, in series [3] (setting [10]), the LD50 is 68 mg/kg.
For `CC(=Cc1ccc(Br)o1)[N+](=O)[O-]` [F, 2-bromo-5-(2-methyl-2-nitrovinyl)-furan], in series [6] (by the end of treatment (14 days)), the lesion size entry is given as “ineffective”. Further, in series [6], the “effectiveness on chronic lesions” value is “did not prove to be effective”. The IC50 in series [1] was 0.2 µg/mL (≈ 0.862 µM); in series [2], 0.24 µg/mL (≈ 1.03 µM); in [4] it was 0.2 µg/mL (≈ 0.862 µM); in series [5], 5.3 µg/mL and 23 µM. For the same compound, the CP100 in [1] was 1.42; in series [2], 1.32; in [4], 0.62; in series [5], 30.0 μg/mL and 129.3 μM. In series [7] (first week of treatment, 50 mg/Kg i.p. daily), the lesion size change result is recorded as “small decrease in lesion size”. Further, in series [7] (first week of treatment, i.p. daily, D 5 mg/Kg, F 50 mg/Kg), the lesion growth entry is recorded as “minimal lesion growth”. In addition, the “activity compared with Amphotericin B” value in series [8] is reported as “higher activity than Amphotericin B”. Moreover, in [8] (D 2 mg/Kg, F 100 mg/Kg), the lesion growth rate result is “significantly lower compared to controls”. Moreover, in series [3] (mouse, in vivo, ip), the MTD at 14 days is 100 mg/kg. For the same compound, in series [3], the LD0 is 200 mg/kg. The LD50 in [3] (setting [10]) was found to be 246 mg/kg.
On to `O=[N+]([O-])C=Cc1ccc(Br)o1` [B, 2-bromo-5-(2-nitrovinyl)-furan], for which the IC50 was 0.45 µg/mL (≈ 2.06 µM) in series [1]; 0.18 µg/mL (≈ 0.826 µM) in [2]; 0.23 µg/mL (≈ 1.06 µM) in series [4]; 1.2 µg/mL and 5.7 µM in series [5]. Also, the CP100 in series [1] was 2.08; in [2] it was 0.61; in series [4], 0.51; in [5], 3.3 μg/mL and 15.3 μM. For the same compound, the MTD at 14 days in series [3] (mouse, in vivo, ip) came to 20 mg/kg. In [3], the LD0 is 45 mg/kg. Moreover, the LD50 in series [3] (setting [10]) worked out at 73 mg/kg.
Take “meglumine antimoniate [Glucantime ®, reference compound]”: the CP100 in [1], in series [2] and in series [4] was greater than 4250 each time. In addition, the “activity relative to the β-nitrovinylfuran derivatives” value in series [9] is “significantly less active”.
Turning to `C[C@@H]1[C@H](O)[C@@H](C)/C=C/C=C/C=C/C=C/C=C/C=C/C=C/[C@H](O[C@@H]2O[C@H](C)[C@@H](O)[C@H](N)[C@@H]2O)C[C@@H]2O[C@](O)(C[C@@H](O)C[C@@H](O)[C@H](O)CC[C@@H](O)C[C@@H](O)CC(=O)O[C@H]1C)C[C@H](O)[C@H]2C(=O)O` [Amphotericin B, reference compound], in [6] (by the end of treatment), the “dorso-plantar diameter versus control” value was “incremented their lesion dorso-plantar diameters as controls” and the “lateral diameter versus control” value is on record as “the change was not different”. Also, the “effectiveness on chronic lesions” value in series [6] is listed as “not effective”. The same compound gave a CP100 in series [1] of 0.051. Besides, the “lesion evolution versus controls” value in series [7] (during and after 14 days treatment, Amphotericin B 1 mg/Kg, D 5 mg/Kg) was “evolved similarly to controls”. The “lesion growth rate after discontinuation” value in [7] (first week after discontinuation of treatment, 1 mg/Kg) was “remarkable decrease of lesion growth rate”. Besides, the CP100 in [2] came out at 0.028. In series [3], the LD0 is 15 mg/kg and the LD50 was 22 mg/kg. The compound further gave a CP100 in series [4] of 0.016. For the same compound, the “activity relative to the β-nitrovinylfuran derivatives” value in series [9] is “more active than the β-nitrovinylfuran derivatives”.
